Reference: patent publication US20080015224A1, “Nitroxide superoxide dismutase mimetics to treat extracellular superoxide dismutase deficiencies” (priority 2006, published 2008)
“Also recorded” adds a separate entry of the source.

Assays:
[1] = test system: O2−. generated by xanthine plus xanthine oxidase; assay: Inhibition of O2−. generated by xanthine-xanthine oxidase in vitro (SOD mimetic activity, lucigenin chemiluminescence); format: biochemical; settings: for Maximum inhibition, %: O2−. generated by xanthine-xanthine oxidase in vitro, means ± SE, 5 studies; for O2−. generated by a xanthine-xanthine oxidase reaction extinguished: tested in PBS at 10^−4 M
Experimental: The SOD activities of Ns were evaluated in vitro for their efficacy in dampening O2^−. generated by xanthine (25 μmol/l) plus xanthine oxidase (9 IU/ml). Their lipid solubility was assessed by shaking the Ns in a 50:50 mixture of PBS (Ambion, Austin, Tex.) and chloroform (CHCl3; EM Science, Gibbstown, N.J.), taking an aliquot of the PBS phase, evaporating the CHCl3phase to dryness, reconstituting it in PBS, and assessing the SOD activities in the two solutions. O2^−. was assessed by chemiluminescence with 5 μM lucigenin (AutoLumatPlus LB 953; EG&G, Berthold, Germany). The reduction in the stable peak value for chemiluminescence for each N, relative to vehicle, defined the SOD mimetic activity.
SOD activity by the nitroxides was assessed in vitro (Table 1). […] The ratio of the activity that partitioned into CHCl3 compared with PBS was examined.

[2] = test system: spontaneously hypertensive rat (SHR); assay: Acute antihypertensive response (MAP, HR) to graded intravenous doses in anesthetized SHR; format: in vivo; settings: for acute change in MAP and HR: graded intravenous doses (nitroxides 17-270 μmol/kg; SOD 34-540 U/kg)
Experimental: Experiments were approved by the Georgetown University Animal Care and Use Committee. Male SHR weighing 250-350 g (Taconic, Germantown, N.Y.) were anesthetized with thiobutabarbital (Inactin; Sigma, St. Louis, Mo.) (10 mg/100 g) after halothane (Halocarbon Laboratories, River Edge, N.J.) induction. Rats received 0.9% NaCl at 2 ml/h IV up to the time of receiving drugs to maintain euvolemia. A femoral artery was cannulated with polyethelene (PE)-50 tubing connected to a digital blood pressure analyzer (Micro-Med, Louisville, Ky.). Animals were equilibrated for 45 min. Thereafter, a nitroxide (17 μmol/kg) was infused intravenously over 10 s. The mean arterial pressure (MAP) and heart rate (HR) were recorded over the first 5 min and at 10 and 15 min. This was followed by doses of 54, 72, 174, and 270 μmol/kg under similar conditions. The same protocol was followed with each nitroxide: T, 4-oxo-tempo (OT), 4-amino-tempo (AT), 3-carboxy-peroxyl (3-CTPY) (Aldrich, Milwaukee, Wis.), 3-carbomyl-proxyl (3-CP) (Sigma), and 4-trimethylammonium-2,2,6,6,-tetramethylpiperidine-1-oxyl iodide (CAT-1) (Molecular Probes, Eugene, Oreg.) (FIG. 3). Doses of bovine Cu/Zn SOD (MW 32,500; Oxis Research, Portland, Oreg.) were selected that had equivalent SOD mimetic activity in vitro to the doses of T used for intravenous studies: 34, 110, 140, 260, 350, and 540 U/kg. SOD injection followed a similar protocol to the nitroxides and was compared with vehicle-injected rats. Additional rats received injections of previously boiled SOD as a further control group. Six rats were studied in each group.
The mean±SE changes in MAP and HR were calculated from the individual dose-response relations. The responsiveness was the maximum effect, and the sensitivity was the expected dose for ED50. Data were analyzed by ANOVA with post hoc testing by the Dunnett test, where appropriate. Statistical significance was taken as P<0.05.

[3] = test system: O2−. generated by xanthine plus xanthine oxidase; assay: Inhibition of O2−. generated by xanthine-xanthine oxidase in vitro (SOD mimetic activity, lucigenin chemiluminescence); format: biochemical; settings: means ± SE
[4] = test system: mesenteric resistance arteries (MRAs) from EC-SOD −/− and +/+ mice; assay: Contraction of isolated mesenteric resistance arteries (myograph); settings: vessels from EC-SOD −/− mice; bath addition, 20 min; tempol 10^−4 M, PEG-SOD 100 units·ml^−1, catalase 300 units·ml^−1
Experimental: FIG. 19: Responses of mouse isolated mesenteric resistance vessles to endothelin-1: comparison of EC-SOD +/+ with −/−. (A) Contraction to endothelin-1, (B) Superoxide production with endothelin-1. Mean±SEM values (n=6-8 per group). Response to endothelin-1 in vessels incubated for 20 min with vehicle, tempol (10^−4 M), PEG-SOD (100 units·ml^−1), and catalase (300 units·ml^−1). Compared to vehicle, ***, p<0.005.
(§1) Reactive oxygen spice (ROS) and endothelin-1 (ET-1) contribute to angiotensin-induced hypertension. We used isolated mesenteric resistance arteries (MRAs) from EC-SOD knockout (−/−) mice (n=10) and EC-SOD wild type (+/+) mice (n=10), as a model to investigate the hypothesis that microvascular ET-1 and superoxide anion (O2.^−) interact to enhance contractility. Tension and O2.^− were quantitated in real time in dihydroethidium (DHE)-loaded MRAs in a myograph equipped with a dual-emission photon detection fluorescence system to measure ethidium (Eth): DHE ratio (E/D) as a direct readout of O2.^− activity. […] PEG-SOD normalized augmented ET-1 contraction (64±4% vs 71±3%; p=ns) and prevent an increase in E/D ratio in MRAs from −/− (0.6±0.5 vs 0.5±0.8, p=ns). In summary, ET-1 generates microvascular O2.^− that enhances its vasoconstrictive action.

[5] = test system: mesenteric resistance arteries (MRAs) from EC-SOD −/− and +/+ mice; assay: Superoxide as ethidium:DHE ratio (E/D) in dihydroethidium-loaded mesenteric resistance arteries; settings: dihydroethidium-loaded vessels from EC-SOD −/− mice; tempol 10^−4 M, PEG-SOD 100 units·ml^−1, catalase 300 units·ml^−1
Source text: as §1
A current study contrasts the responses to endothelin-1 (ET-1) in mesenteric resistance vessels from EC-SOD (−/−) and (+/+) mice. […] Parallel studies of vascular superoxide in dihydroethidium-loaded vessels show enhanced conversion to ethidium, indicating enhanced superoxide formation, in vessels from EC-SOD −/−mice. […] We conclude that in the model system of SOD deficiency caused by gene deletion of EC-SOD in the mouse, tempol can correct enhanced contractions and enhanced oxidative stress. It is thereby envisioned as being effective in preventing hypertension and cardiovascular disease.

[6] = test system: cremasteric microvessels in the anesthetized mouse; assay: In vivo EDRF (acetylcholine-induced vasodilation) responses of cremasteric microvessels; settings: 10^−4 M tempol in superfusate; EC-SOD −/− mice and mice infused with Ang II 400 ng·kg^−1·min^−1 sc × 12 days
Experimental: FIG. 18: In vivo EDRF responses of cremasteric vessels are impaired by EC-SOD knockout or prolonged angiotensin II infusion but are restored by superfusion of tempol. Mean±SEM (n=c6 per group). Ang II infusion at 400 ng·kg^−1·min^−1 sc×12 days. T, 10^−4 M tempol in superfusate. Basal diameter 39±0.4 μm (similar in each group). Compared to EC-SOD +/+; *, p<0.05. Compared to vehicle infusion: †, p<0.05. All effects of tempol, p<0.005.
Our current studies have shown that the SOD mimetic drug tempol, when superfused over cremasteric microvessels in the anesthetized mouse, increases that acetylcholine-induced vasodilation response. This effect of acetylcholine is reduced in the EC-SOD (−/−) mouse and in normal and EC-SOD (−/−) mice infused for 12 days with Ang II which causes oxidative stress that bioinactivates nitric oxide which is a mediator of this response. […] This is important since acetylcholine-induced vasodilation is a test of endothelium-dependent relaxation (EDR). Defects in EDR are related to oxidative inactivation of nitric oxide and underlie many CVD risk factors. Thus defects in EDR could be the focus for abnormal vascular responses and increased CVD events in subjects with the R213G SNIP of EC-SOD.

[7] = measured previously in the literature; cited from earlier work
[8] = test system: cell membranes; settings: cited from earlier work

Compound | Maximum inhibition, % [1] [%] | O2−. generated by a xanthine-xanthine oxidase reaction extinguished [1] | acute change in MAP and HR [2] | ED50, μmol/kg [3] | maximal reduction in MAP (comparison between compounds) ([2]; graded intravenous doses) | time to maximum reductions in MAP and HR ([2]; graded intravenous doses) [min] | effect on enhanced contractions to ET-1 [4] | effect on enhanced superoxide formation with ET-1 [5] | acetylcholine-induced vasodilation (EDRF) response [6] | redox midpoint potential E1/2 [7] [mV] | permeation of cells [8]
CC1(C)CC(C(=O)O)C(C)(C)N1[O] (centres unmarked) [Compound 3-CTPY, 3-carboxy-peroxyl] | 15 ± 3 | significantly lower fraction | ineffective; also recorded: did not | ∞† | – | – | – | – | – | – | –
CC1(C)CC(O)CC(C)(C)N1[O] [T, 4-hydroxy-2,2,6,6-tetramethyl-1 piperidinyloxy] | 92 ± 1 | 92% | decreased MAP and HR acutely | – | greater maximal fall in MAP with T than CAT-1; also recorded: greatest reductions in MAP | ≤ 1 | normalized | normalized | restored to normal | 800 | permeates cell membranes freely
